# Assays:
# K562 cells = assay: CellTiter-Glo cell viability assay, K562; assay type: cell-based, human; details: Homo sapiens, K562; CML; 72 h, CellTiter-Glo, n = 3
# Experimental: (§1) Healthy individually-derived fibroblasts were cultured in DMEM supplemented with 10% FCS. Regular cell line authentication was performed short tandem repeat (STR) analysis (DNA fingerprinting), followed by comparison with the original DSMZ cell line database.
# (§2) Cell viability assay was performed with leukemic cell lines after 72 h incubation with the respective inhibitors using ATP-based CellTiter-Glo luminescent assay (Promega, Madison, WI, USA).
# A2780 cells = assay: MTT cell viability assay; assay type: cell-based; details: Homo sapiens, 72 h, n ≥ 3 in triplicate, mean ± SD
# Experimental: Reagents were obtained from PAN Biotech, Aidenbach Germany. The cell line was cultured at 37 °C under humidified air with 5% CO2 to a confluence of 80–90% before being used for further assays.
# Intrinsic cytotoxicity of test compounds was determined by an MTT assay as previously described. A2780 cells were seeded in 96-well plates (Starlab GmbH, Hamburg, Germany) at a density of 20,000 cells/well and allowed to attach for 12 h. Cells were then treated with increasing concentrations of the test compounds. After 72 h, MTT (3-(4,5-dimethylthiazol-2-yl)-2,5-diphenyltetrazolium bromide) (BioChemica, Applichem GmbH, Darmstadt, Germany) solution (5 mg/mL in phosphate-buffered saline) was added to determine cell survival. The formazan dye was dissolved in DMSO (Sigma-Aldrich, Darmstadt, Germany) after 1 h. Absorbance was measured at 570 nm and 690 nm in a Multiskan microplate photometer (Thermo Fisher Scientific, Waltham, MA, USA). Concentration-response curves were generated using the four-parameter logistic equation (GraphPad Prism 9.0, San Diego, USA), and mean IC50 values were calculated in triplicates based on at least three different experiments.
# human HDAC1 (hHDAC1) = biological target: T1, human HDAC1 (hHDAC1) (Homo sapiens, UniProt Q13547); assay: In vitro human HDAC1 assay (ZMAL substrate); assay type: biochemical
# T1 construct: purchased BPS Bioscience Inc. 50051
# Experimental: (§3) OptiPlate-96 black microplates (Perkin Elmer Inc., Waltham, MA, USA) were used with an assay volume of 50 µL. […] After an incubation time of 90 min, 50 µL of 0.4 mg/mL trypsin in trypsin buffer (50 mM Tris-HCl, pH 8.0, and 100 mM NaCl) was added, followed by further incubation at 37 °C for 30 min.
# HPBALL cells = assay: CellTiter-Glo cell viability assay, HPBALL; assay type: cell-based, human; details: Homo sapiens, HPBALL; T-ALL; 72 h, CellTiter-Glo, n = 3
# Experimental: as §1, §2
# NALM6 cells = assay: CellTiter-Glo cell viability assay, NALM6; assay type: cell-based, human; details: Homo sapiens, NALM-6; B-ALL; 72 h, CellTiter-Glo, n = 3
# Experimental: as §1, §2
# MOLM13 cells = assay: CellTiter-Glo cell viability assay, MOLM13; assay type: cell-based, human; details: Homo sapiens, MOLM-13; AML; 72 h, CellTiter-Glo, n = 3
# Experimental: as §1, §2
# human HDAC6 (hHDAC6) = biological target: T2, human HDAC6 (hHDAC6) (Homo sapiens, UniProt Q9UBN7); assay: In vitro human HDAC6 assay (ZMAL substrate); assay type: biochemical; details: for SI 1/6: Selectivity Index = (hHDAC1 IC50)/(hHDAC6 IC50)
# T2 construct: purchased BPS Bioscience Inc. 50006
# T2 sequence (Q9UBN7 1-1215): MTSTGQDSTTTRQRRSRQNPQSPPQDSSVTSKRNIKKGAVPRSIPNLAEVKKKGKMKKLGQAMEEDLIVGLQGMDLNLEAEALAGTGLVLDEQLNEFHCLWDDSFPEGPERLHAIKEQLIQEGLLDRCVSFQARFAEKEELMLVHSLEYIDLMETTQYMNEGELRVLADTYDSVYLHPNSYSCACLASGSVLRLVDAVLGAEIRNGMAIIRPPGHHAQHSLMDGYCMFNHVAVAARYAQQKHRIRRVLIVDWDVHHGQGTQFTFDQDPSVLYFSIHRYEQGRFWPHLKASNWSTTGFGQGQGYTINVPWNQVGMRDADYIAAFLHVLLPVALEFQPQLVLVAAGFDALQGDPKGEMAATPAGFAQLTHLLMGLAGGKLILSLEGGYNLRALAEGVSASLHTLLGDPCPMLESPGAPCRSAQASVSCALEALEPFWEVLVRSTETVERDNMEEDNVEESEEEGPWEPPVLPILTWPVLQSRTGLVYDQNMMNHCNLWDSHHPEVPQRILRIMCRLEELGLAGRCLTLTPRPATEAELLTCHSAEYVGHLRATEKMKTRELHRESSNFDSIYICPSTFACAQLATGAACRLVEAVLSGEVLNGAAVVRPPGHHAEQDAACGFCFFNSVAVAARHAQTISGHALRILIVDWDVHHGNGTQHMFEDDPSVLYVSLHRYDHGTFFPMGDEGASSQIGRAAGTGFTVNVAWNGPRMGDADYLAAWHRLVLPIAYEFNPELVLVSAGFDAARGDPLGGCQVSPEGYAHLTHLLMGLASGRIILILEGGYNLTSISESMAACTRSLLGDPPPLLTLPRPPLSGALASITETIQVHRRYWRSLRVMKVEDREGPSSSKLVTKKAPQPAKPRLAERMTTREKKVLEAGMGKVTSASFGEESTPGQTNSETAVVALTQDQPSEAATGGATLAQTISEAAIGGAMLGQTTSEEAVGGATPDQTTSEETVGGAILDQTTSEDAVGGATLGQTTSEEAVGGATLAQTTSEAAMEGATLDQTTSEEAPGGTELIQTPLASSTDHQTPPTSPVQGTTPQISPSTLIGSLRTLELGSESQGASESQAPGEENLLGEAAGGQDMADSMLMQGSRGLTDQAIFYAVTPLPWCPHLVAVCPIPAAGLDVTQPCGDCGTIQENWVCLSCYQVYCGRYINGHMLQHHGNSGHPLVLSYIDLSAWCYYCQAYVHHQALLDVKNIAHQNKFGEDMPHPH
# Experimental: as §3
# P. falciparum 3D7 = assay: microbe, parasite or virus in culture; assay type: cell-based; details: Plasmodium falciparum, 3D7, 72 h; asexual blood stages, three days incubation; n ≥ 2 in duplicate, mean ± SD; read-out: Pf3D7 IC50
# Experimental: (§4) [38, 39] […] After three days of incubation at 37 °C, 5% CO2 and 5% O2 plates were frozen until analyzed by HRP2-ELISA. All compounds were evaluated in duplicate in at least two independent experiments. The IC50 was determined by nonlinear regression analysis of log concentration-response curves using the drc-package v3.0.1 [40] of R v4.0.5..
# P. falciparum Dd2 = assay: microbe, parasite or virus in culture; assay type: cell-based; details: Plasmodium falciparum, DD2, 72 h, read-out: PfDd2 IC50
# Experimental: as §4
# HL60 cells = assay: CellTiter-Glo cell viability assay, HL60; assay type: cell-based, human; details: Homo sapiens, HL-60; AML; 72 h, CellTiter-Glo, n = 3
# Experimental: as §1, §2
# [1] = test system: five leukemia cell lines (K562, HL60, NALM6, HPBALL, MOLM13); assay: CellTiter-Glo cell viability assay, panel of five leukemia cell lines; assay type: cell-based, human; details: number of the five leukemia cell lines in which DHA is exceeded
# Experimental: as §1, §2
# P. falciparum Dd2 R539T = assay: In vitro P. falciparum growth inhibition assay (HRP2), Dd2 R539T; assay type: cell-based; details: Plasmodium falciparum, DD2, 72 h, read-out: PfDd2 R539T IC50
# Experimental: Antiplasmodial activity of DHA–HDACi hybrids was evaluated against the asexual stages of the laboratory P. falciparum strains (3D7, chloroquine-sensitive strain, and Dd2, chloroquine-resistant strain, and Dd2 R539T (MRA-1255), provided by BEI Resources carrying a kelch13-mutation that conveys partial artemisinin resistance), using the histidine-rich protein 2 (HRP2) assay, as previously described. In brief: 96-well plates were precoated with the tested compounds in a three-fold serial dilution before ring-stage parasites were added in complete culture medium at a hematocrit of 1.5% and a parasitaemia of 0.05%. After three days of incubation at 37 °C, 5% CO2 and 5% O2 plates were frozen until analyzed by HRP2-ELISA. All compounds were evaluated in duplicate in at least two independent experiments. The IC50 was determined by nonlinear regression analysis of log concentration-response curves using the drc-package v3.0.1 [40] of R v4.0.5..
# T1 sequence (Q13547 whole entry): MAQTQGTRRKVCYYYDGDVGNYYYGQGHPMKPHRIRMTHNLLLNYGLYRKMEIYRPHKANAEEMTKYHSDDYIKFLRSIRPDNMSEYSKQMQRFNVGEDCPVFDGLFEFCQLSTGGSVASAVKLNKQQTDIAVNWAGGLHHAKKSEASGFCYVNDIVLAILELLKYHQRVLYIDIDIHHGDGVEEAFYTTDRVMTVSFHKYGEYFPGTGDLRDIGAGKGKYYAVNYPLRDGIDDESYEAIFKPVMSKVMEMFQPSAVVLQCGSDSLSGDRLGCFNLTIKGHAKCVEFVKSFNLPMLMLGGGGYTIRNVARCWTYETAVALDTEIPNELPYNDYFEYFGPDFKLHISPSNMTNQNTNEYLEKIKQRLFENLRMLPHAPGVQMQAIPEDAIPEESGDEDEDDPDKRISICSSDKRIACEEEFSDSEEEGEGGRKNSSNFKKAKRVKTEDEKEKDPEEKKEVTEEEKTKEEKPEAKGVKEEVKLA
SMILES,IC50 (K562 cells) [µM],IC50 (A2780 cells) [µM],IC50 (human HDAC1 (hHDAC1)) [µM],IC50 (HPBALL cells) [µM],IC50 (NALM6 cells) [µM],IC50 (MOLM13 cells) [µM],IC50 (human HDAC6 (hHDAC6)) [µM],SI 1/6 (human HDAC6 (hHDAC6)),IC50 (P. falciparum 3D7) [µM],IC50 (P. falciparum Dd2) [µM],IC50 (HL60 cells) [µM],inhibition at 3.33 µM (human HDAC1 (hHDAC1)) [%],antiproliferative activity compared to DHA [1],IC50 (P. falciparum Dd2 R539T) [µM]
"C[C@H]1[C@H](Sc2ccc(CC(=O)NO)cc2)O[C@@H]2O[C@@]3(C)CC[C@H]4[C@H](C)CC[C@@H]1[C@@]24OO3 [(β)-7e, N-Hydroxy-2-(4-(((3R,5aS,6R,8aS,9R,10S,12S,12aR)-3,6,9-trimethyldecahydro-12H-3,12-epoxy[1,2]dioxepino[4,3-i]isochromen-10-yl)thio)phenyl)acetamide]",1.71 ± 0.33,2.09 ± 0.42,> 10,20.6 ± 6.13,0.77 ± 0.08,0.64 ± 0.17,1 ± 0.13,>10,0.0026 ± 0.0013,0.0016 ± 0.0008,,,,
"C[C@@H]1CC[C@H]2[C@@H](C)C(OCc3ccc(/C=C/C(=O)O)cc3)O[C@@H]3O[C@@]4(C)CC[C@@H]1[C@]32OO4 (stereo partly drawn) [Compound 6a, (E)-3-(4-((((3R,5aS,6R,8aS,9R,12R,12aR)-3,6,9-Trimethyldecahydro-12H-3,12-epoxy[1,2]dioxepino[4,3-i]isochromen-10-yl)oxy)methyl)phenyl)acrylic acid]",4.01 ± 0.6,3.38 ± 0.21,> 10,23.9 ± 4.69,1.31 ± 0.11,0.68 ± 0.09,> 10,,0.0059 ± 0.0007,0.0058 ± 0.0028,2.53 ± 0.56,,,
"C[C@@H]1CC[C@H]2[C@@H](C)C(OCc3ccc(/C=C/C(=O)Nc4ccccc4N)cc3)O[C@@H]3O[C@@]4(C)CC[C@@H]1[C@]32OO4 (stereo partly drawn) [Compound 8, (E)-N-(2-Aminophenyl)-3-(4-((((3R,5aS,6R,8aS,9R,12R,12aR)-3,6,9-trimethyldecahydro-12H-3,12-epoxy[1,2]dioxepino[4,3-i]isochromen-10-yl)oxy)methyl)phenyl)acrylamide]",0.69 ± 0.11,1.47 ± 0.98,> 3.33,1.69 ± 0.19,0.34 ± 0.03,0.49 ± 0.08,> 10,,0.0025 ± 0.0014,0.0025 ± 0.00014,1.64 ± 0.17,41,exceeded the antiproliferative potential of DHA in four out of five cell lines,
"C[C@H]1[C@H](OCc2ccc(C(=O)NO)cc2)O[C@@H]2O[C@@]3(C)CC[C@H]4[C@H](C)CC[C@@H]1[C@@]24OO3 [Compound 7d, N-Hydroxy-4-((((3R,5aS,6R,8aS,9R,10R,12R,12aR)-3,6,9-trimethyldecahydro-12H-3,12-epoxy[1,2]dioxepino[4,3-i]isochromen-10-yl)oxy)methyl)benzamide]",1 ± 0.36,1.31 ± 0.32,2.49 ± 0.24,6.81 ± 0.54,0.36 ± 0.05,0.39 ± 0.05,0.014 ± 0.002,178,0.0028 ± 0.0013,0.002 ± 0.0007,2.41 ± 0.45,,,0.0012 ± 0.0008
"C[C@@H]1CC[C@H]2[C@@H](C)C(SCCCCCC(=O)NO)O[C@@H]3O[C@@]4(C)CC[C@@H]1[C@]32OO4 (stereo partly drawn) [Compound 7b, N-Hydroxy-6-(((3R,5aS,6R,8aS,9R,12S,12aR)-3,6,9-trimethyldecahydro-12H-3,12-epoxy[1,2]dioxepino[4,3-i]isochromen-10-yl)thio)hexanamide]",0.91 ± 0.32,1.52 ± 0.05,0.43 ± 0.046,2.41 ± 0.38,0.26 ± 0.01,0.58 ± 0.19,0.045 ± 0.005,10,0.0052 ± 0.0004,0.0066 ± 0.0025,2.07 ± 0.03,,,0.003 ± 0.0012
"C[C@H]1[C@@H](Sc2ccc(CC(=O)NO)cc2)O[C@@H]2O[C@@]3(C)CC[C@H]4[C@H](C)CC[C@@H]1[C@@]24OO3 [(α)-7e, N-Hydroxy-2-(4-(((3R,5aS,6R,8aS,9R,10R,12S,12aR)-3,6,9-trimethyldecahydro-12H-3,12-epoxy[1,2]dioxepino[4,3-i]isochromen-10-yl)thio)phenyl)acetamide]",0.77 ± 0.24,1.83 ± 0.1,> 10,3.34 ± 0.37,0.44 ± 0.01,0.45 ± 0.18,1.1 ± 0.075,>9,0.0031 ± 0.0007,0.0018 ± 0.0008,1.62 ± 0.12,,,

# From article PMC8952208, “Synthesis, Antiplasmodial, and Antileukemia Activity of Dihydroartemisinin–HDAC Inhibitor Hybrids as Multitarget Drugs” (Pharmaceuticals, 2022)
